One assay concerns FADD−/− Jurkat cells. Briefly: Necroptosis inhibition assay, TNF-α-induced necroptosis (CellTiter-Glo 2.0). It is filed as cell-based, human. The conditions noted are these: TNF-α 15 ng/mL; for Necroptosis inhibition assay (Rescue %) 1 μM: compound 1 μM; for Necroptosis inhibition assay (Rescue %) 10 μM: compound 10 μM. The method, boiled down:
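Cmpd 0.1/1/10 μM final, 30 min RT preincubation; TNF-α 15 ng/mL final; 20–24 h, 37° C, 5% CO2. Readout: ATP luminescence (reagent 1:3 in PBS), 0.5 s/well. Cytotoxicity and % necroptosis inhibition calculated from signal.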
(Cellular ATP, detected with luciferase, serves as a proxy for viable cell number.)

Assay [1] has as its target T1, MLKL (Homo sapiens, UniProt Q8NB16).
T1 sequence (Q8NB16 1-471): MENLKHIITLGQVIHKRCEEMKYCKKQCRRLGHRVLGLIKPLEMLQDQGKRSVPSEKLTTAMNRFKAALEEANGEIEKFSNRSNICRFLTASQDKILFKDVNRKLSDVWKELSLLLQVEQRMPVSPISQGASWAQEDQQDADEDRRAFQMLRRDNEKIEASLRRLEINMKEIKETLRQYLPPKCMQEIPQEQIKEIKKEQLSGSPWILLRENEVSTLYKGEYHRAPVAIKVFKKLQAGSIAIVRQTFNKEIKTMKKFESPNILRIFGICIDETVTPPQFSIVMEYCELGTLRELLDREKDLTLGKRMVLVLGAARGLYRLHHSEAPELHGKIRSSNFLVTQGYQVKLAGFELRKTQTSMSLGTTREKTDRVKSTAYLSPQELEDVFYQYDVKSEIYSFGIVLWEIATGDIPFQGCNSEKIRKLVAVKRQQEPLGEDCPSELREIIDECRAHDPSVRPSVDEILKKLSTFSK
Briefly: MLKL degradation assay in HepG2 cell line (western blot). In kind it is cell-based. More on the design: endogenous in cells; host or cells: HepG2 or HaCaT. The conditions noted are these: cell line not given; for Degradation assay (Degradation %) 1 μM: compound 1 μM; for Degradation assay (Degradation %) 10 μM: compound 10 μM. The method in brief:
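HepG2, cpd final 1 or 10 μM, 20-24 h, 37 °C/5% CO2; RIPA lysis, BCA-normalized, 10-15 μg/lane SDS-PAGE, western blot, ECL read-out.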
For orientation: A western blot detects proteins with antibodies after separation by electrophoresis.

The target of assay [2] is T1, MLKL. Briefly: Measurement of binding affinity with MLKL receptor (competitive binding assay, Kd). On the set-up: made in house; host or cells: HEK 293 cell line (T7 phage in E. coli BL21-derived host is also described). The method, boiled down: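 HEK 293-expressed, DNA-tagged MLKL; ligand beads blocked with biotin and SeaBlock/1% BSA/0.05% Tween 20/1 mM DTT buffer. Cpd from 111× DMSO stock, 0.9% DMSO final. Eluted kinase by qPCR → Kd.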

Structures are written as SMILES.

In general, Kd refers to a measure of binding affinity in units of concentration. Higher therefore signals weaker binding.

Turning to `Nc1ncc(-c2cnn(C3CCN(CCOCCNC(=O)CNc4ccc5c(c4)C(=O)N(C4CCC(=O)NC4=O)C5=O)CC3)c2)nc1C(=O)O[C@@H](C(=O)Nc1ccc(F)cc1)c1ccccc1` (stereo partly drawn) [TDH-125, (R)-2-((4-fluorophenyl)amino)-2-oxo-1-phenylethyl 3-amino-6-(1-(1-(2-(2-(2-((2-(2,6-dioxopiperidin-3-yl)-1,3-dioxoisoindolin-5-yl)amino)acetamido)ethoxy)ethyl)piperidin-4-yl)-1H-pyrazol-4-yl)pyrazine-2-carboxylate], in the assay with FADD−/− Jurkat cells, the “Necroptosis inhibition assay (Rescue %) 1 μM” value is 21.27% and the “Necroptosis inhibition assay (Rescue %) 10 μM” value was 54.55%. At MLKL [1], the “Degradation assay (Degradation %) 1 μM” value worked out at 30.1% and the “Degradation assay (Degradation %) 10 μM” value is listed as 69.02%. At MLKL [2], the Kd amounted to 3.2 nM.
In the same order, the values of `Nc1ncc(-c2cnn(C3CCN(CCOCCOCCNC(=O)CNc4cccc5c4C(=O)N(C4CCC(=O)NC4=O)C5=O)CC3)c2)nc1C(=O)N[C@@H](C(=O)Nc1ccc(F)cc1)c1ccccc1` (stereo partly drawn) [TDH-217, 3-amino-6-(1-(1-(2-(2-(2-(2-((2-(2,6-dioxopiperidin-3-yl)-1,3-dioxoisoindolin-4-yl)amino)acetamido)ethoxy)ethoxy)ethyl)piperidin-4-yl)-1H-pyrazol-4-yl)-N-((R)-2-((4-fluorophenyl)amino)-2-oxo-1-phenylethyl)pyrazine-2-carboxamide] are 24.76%, 48.87%, 11.62%, 31.11% and 66 nM.
As to `Nc1ncc(-c2cnn(C3CN(CC4CCN(C(=O)CNc5ccc6c(c5)C(=O)N(C5CCC(=O)NC5=O)C6=O)CC4)C3)c2)nc1C(=O)O[C@@H](C(=O)Nc1ccc(F)cc1)c1ccccc1` (stereo partly drawn) [TDH-360, (R)-2-((4-fluorophenyl)amino)-2-oxo-1-phenylethyl 3-amino-6-(1-(1-((1-((2-(2,6-dioxopiperidin-3-yl)-1,3-dioxoisoindolin-5-yl)glycyl)piperidin-4-yl)methyl)azetidin-3-yl)-1H-pyrazol-4-yl)pyrazine-2-carboxylate], the “Necroptosis inhibition assay (Rescue %) 1.1 μM” value in the assay with FADD−/− Jurkat cells (compound 1.1 µM) is listed as 55.49 (1.1µM) %. Further, in the assay with FADD−/− Jurkat cells, the “Necroptosis inhibition assay (Rescue %) 10 μM” value was found to be 38.05%. Further, on MLKL [1], the “Degradation assay (Degradation %) 1 μM” value was 87.25% and the “Degradation assay (Degradation %) 10 μM” value is on record as 73.06%. At MLKL [2], this compound returned a Kd of 3.3 nM.
Consider `Nc1ncc(-c2cnn(C3CCN(CCOCCOCCOCCNc4ccc5c(c4)C(=O)N(C4CCC(=O)NC4=O)C5=O)CC3)c2)nc1C(=O)O[C@@H](C(=O)Nc1ccc(F)cc1)c1ccccc1` (stereo partly drawn) [TDH-154, (R)-2-((4-fluorophenyl)amino)-2-oxo-1-phenylethyl 3-amino-6-(1-(1-(2-(2-(2-(2-((2-(2,6-dioxopiperidin-3-yl)-1,3-dioxoisoindolin-5-yl)amino)ethoxy)ethoxy)ethoxy)ethyl)piperidin-4-yl)-1H-pyrazol-4-yl)pyrazine-2-carboxylate], for which, in the assay on FADD−/− Jurkat cells, the “Necroptosis inhibition assay (Rescue %) 1 μM” value was 37.01% and the “Necroptosis inhibition assay (Rescue %) 10 μM” value is on record as 23.23%. Further, at MLKL [1], the “Degradation assay (Degradation %) 1 μM” value is 25.56% and the “Degradation assay (Degradation %) 10 μM” value worked out at 28.19%. The Kd at MLKL [2] was determined as 3.8 nM.
For the compound `Nc1ncc(-c2cnn(C3CCN(CC4CN(C(=O)COc5ccc6c(c5)C(=O)N(C5CCC(=O)NC5=O)C6=O)CCO4)CC3)c2)nc1C(=O)OC(C(=O)Nc1ccc(F)cc1)c1ccccc1` (centres unmarked) [TDH-309, 2-((4-fluorophenyl)amino)-2-oxo-1-phenylethyl 3-amino-6-(1-(1-((4-(2-((2-(2,6-dioxopiperidin-3-yl)-1,3-dioxoisoindolin-5-yl)oxy)acetyl)morpholin-2-yl)methyl)piperidin-4-yl)-1H-pyrazol-4-yl)pyrazine-2-carboxylate], in the assay with FADD−/− Jurkat cells, the “Necroptosis inhibition assay (Rescue %) 1 μM” value is on record as 75.1% and the “Necroptosis inhibition assay (Rescue %) 10 μM” value is 78.37%. Moreover, on MLKL [1], the “Degradation assay (Degradation %) 1 μM” value is given as 76.12% and the “Degradation assay (Degradation %) 10 μM” value is 77.55%. The compound also came in with a Kd at MLKL [2] of 2.2 nM.
Take `Nc1ncc(-c2cnn(C3CCN(CCOCCNC(=O)C4CCN(c5ccc6c(c5)C(=O)N(C5CCC(=O)NC5=O)C6=O)CC4)CC3)c2)nc1C(=O)O[C@@H](C(=O)Nc1ccc(F)cc1)c1ccccc1` (stereo partly drawn) [TDH-129, (R)-2-((4-fluorophenyl)amino)-2-oxo-1-phenylethyl 3-amino-6-(1-(1-(2-(2-(1-(2-(2,6-dioxopiperidin-3-yl)-1,3-dioxoisoindolin-5-yl)piperidine-4-carboxamido)ethoxy)ethyl)piperidin-4-yl)-1H-pyrazol-4-yl)pyrazine-2-carboxylate]: in the assay with FADD−/− Jurkat cells, the “Necroptosis inhibition assay (Rescue %) 1 μM” value worked out at 49.22% and the “Necroptosis inhibition assay (Rescue %) 10 μM” value came to 67.79%. At MLKL [1], the “Degradation assay (Degradation %) 1 μM” value is recorded as 32.68% and the “Degradation assay (Degradation %) 10 μM” value amounted to 57.68%. Also, the Kd on MLKL [2] worked out at 7.1 nM.
The corresponding values for `Nc1ncc(-c2cnn(C3CCN(C(=O)CC4CCN(c5ccc6c(c5)C(=O)N(C5CCC(=O)NC5=O)C6=O)CC4)CC3)c2)nc1C(=O)O[C@@H](C(=O)Nc1ccc(F)cc1)c1ccccc1` (stereo partly drawn) [TDH-344, (R)-2-((4-fluorophenyl)amino)-2-oxo-1-phenylethyl 3-amino-6-(1-(1-(2-(1-(2-(2,6-dioxopiperidin-3-yl)-1,3-dioxoisoindolin-5-yl)piperidin-4-yl)acetyl)piperidin-4-yl)-1H-pyrazol-4-yl)pyrazine-2-carboxylate] are 14.48%, 17.63%, 64.15%, 47.75% and 13 nM.
The corresponding values for `Nc1ncc(-c2cnn(C3CCN(CC4CCN(C(=O)CCc5ccc6c(c5)C(=O)N(C5CCC(=O)NC5=O)C6=O)CC4)CC3)c2)nc1C(=O)O[C@@H](C(=O)Nc1ccc(F)cc1)c1ccccc1` (stereo partly drawn) [TDH-328, (R)-2-((4-fluorophenyl)amino)-2-oxo-1-phenylethyl 3-amino-6-(1-(1-((1-(3-(2-(2,6-dioxopiperidin-3-yl)-1,3-dioxoisoindolin-5-yl)propanoyl)piperidin-4-yl)methyl)piperidin-4-yl)-1H-pyrazol-4-yl)pyrazine-2-carboxylate] are 52.22%, 31.65%, 69.07%, 58.46% and 1.8 nM.
The corresponding values for `Nc1ncc(-c2cnn(C3CCN(C(=O)COCCOCCNC(=O)C4CCN(c5ccc6c(c5)C(=O)N(C5CCC(=O)NC5=O)C6=O)CC4)CC3)c2)nc1C(=O)O[C@@H](C(=O)Nc1ccc(F)cc1)c1ccccc1` (stereo partly drawn) [TDH-195, (R)-2-((4-fluorophenyl)amino)-2-oxo-1-phenylethyl 3-amino-6-(1-(1-(2-(2-(2-(1-(2-(2,6-dioxopiperidin-3-yl)-1,3-dioxoisoindolin-5-yl)piperidine-4-carboxamido)ethoxy)ethoxy)acetyl)piperidin-4-yl)-1H-pyrazol-4-yl)pyrazine-2-carboxylate] are 80.66%, 39.24%, 63.85%, 29.78% and 6.9 nM.
Regarding `Nc1ncc(-c2cnn(C3CCN(CCC4CCN(C(=O)CNc5cccc6c5C(=O)N(C5CCC(=O)NC5=O)C6=O)CC4)CC3)c2)cc1C(=O)OC(C(=O)Nc1ccc(F)cc1)c1ccccc1` (centres unmarked) [TDH-303, 2-((4-fluorophenyl)amino)-2-oxo-1-phenylethyl 2-amino-5-(1-(1-(2-(1-((2-(2,6-dioxopiperidin-3-yl)-1,3-dioxoisoindolin-4-yl)glycyl)piperidin-4-yl)ethyl)piperidin-4-yl)-1H-pyrazol-4-yl)nicotinate], in the assay with FADD−/− Jurkat cells, the “Necroptosis inhibition assay (Rescue %) 1 μM” value came to 10.34% and the “Necroptosis inhibition assay (Rescue %) 10 μM” value is on record as 17.69%. At MLKL [1], the “Degradation assay (Degradation %) 1 μM” value was 82.82% and the “Degradation assay (Degradation %) 10 μM” value was found to be 82.05%. The Kd at MLKL [2] was 13 nM.
